In patent US9586957B2, “2-keto amide derivatives as HIV attachment inhibitors” (priority 2013, dated 2017):
Like-named read-outs stand apart in the source and are kept apart here.

System: HIV-1 LAI
Assay: Single-round infectious HIV-1 LAI envelope luciferase reporter virus infection of MT2 cells
Type: cell-based
Conditions: Human immunodeficiency virus 1, MT2, 72 h
Description: • Virus production—Human embryonic Kidney cell line, 293T (HEK 293T), was propagated in Dulbecco's Modified Eagle Medium (Invitrogen, Carlsbad, Calif.) containing 10% fetal bovine serum (FBS, Sigma, St. Louis, Mo.). The human T-cell leukemia cell MT2 (AIDS Research and Reference Reagent Program, Cat. 237) was propagated in RPMI 1640 (Invitrogen, Carlsbad, Calif.) containing 10% fetal bovine serum (FBS, Hyclone, Logan, Utah) • Virus infection—Single-round infectious reporter virus was produced by co-transfecting HEK 293T cells with plasmide expressing the HIV-1 LAI envelope along with a plasmid containing an HIV-1 LAI proviral cDNA with the envelope gene replaced by a firefly luciferase reporter gene (Chen et al., Ref 41). Transfections were performed using lipofectAMINE PLUS reagent as described by the manufacturer (Invitrogen, Carlsbad, Calif.). Experimental Procedure • 1. MT2 cells were plated in black, 384 well plates at a cell density of 5×10^3 cells per well in 25 μl RPMI 1640 containing 10% FBS. • 2. Compound (diluted in dimethylsulfoxide and growth medium) was added to cells at 12.5 μl/well, so that the final assay concentration would be ≦50 nM. • 3. 12.5 μl of single-round infectious reporter virus in Dulbecco's Modified Eagle
Medium was added to the plated cells and compound at an approximate multiplicity of infection (MOI) of 0.01, resulting in a final volume of 50 μl per well. • 4. Virus-infected cells were incubated at 37 degrees Celsius in a CO2 incubator and harvested 72 h after infection. • 5. Viral infection was monitored by measuring luciferase expression in the infected cells using a luciferase reporter gene assay kit (Steady-Glo, Promega, Madison, Wis.) as described by the manufacturer. Luciferase activity was then quantified by measuring luminescence using an EnVision Multilabel Plate Readers (PerkinElmer, Waltham, Mass.). • 6. The percent inhibition for each compound was calculated by quantifying the level of luciferase expression in cells infected in the presence of each compound as a percentage of that observed for cells infected in the absence of compound and subtracting such a determined value from 100. • 7. An EC50 provides a method for comparing the antiviral potency of the compounds of the invention. The effective concentration for fifty percent inhibition (EC50) was calculated with the Microsoft Excel Xlfit curve fitting software. For each compound, curves were generated from percent inhibition calculated at 10 different concentrations by using a four parameter logistic model (model 205). Table 1 is the key for the data in Table 2.

[1] = read-out: EC50 Group from Table 1

Row | SMILES | EC50 | EC50 [1]
1 | O=C(C(=O)N1CCC(c2ccccc2)C1)c1c[nH]c2c(-n3ccnn3)ncc(F)c12 (centres unmarked) [Compound 1001] | 38.1 nM | < 500 nM
2 | O=C(C(=O)N1CCC[C@H](c2ccccc2)C1)c1c[nH]c2c(-n3ccnn3)ncc(F)c12 [Compound 1002] |  | < 500 nM
3 | O=C(C(=O)N1CCCC(c2ccc(Cl)cc2)C1)c1c[nH]c2c(-n3ccnn3)ncc(F)c12 (centres unmarked) [Compound 1003] |  | > 500 nM
4 | O=C(C(=O)N1CCCC(c2cccc(F)c2)C1)c1c[nH]c2c(-n3ccnn3)ncc(F)c12 (centres unmarked) [Compound 1004] |  | > 500 nM
5 | O=C(C(=O)N1CCCC(Cc2ccccc2)C1)c1c[nH]c2c(-n3ccnn3)ncc(F)c12 (centres unmarked) [Compound 1005] |  | > 500 nM
6 | O=C(C(=O)N1CCCC(c2ccccc2)CC1)c1c[nH]c2c(-n3ccnn3)ncc(F)c12 (centres unmarked) [Compound 1006] |  | < 500 nM
7 | O=C(C(=O)N1CCC(Nc2ccccc2)C1)c1c[nH]c2c(-n3ccnn3)ncc(F)c12 (centres unmarked) [Compound 1007] |  | < 500 nM
8 | COc1cnc(-n2cnc(C)n2)c2[nH]cc(C(=O)C(=O)N3CCC(=C(C#N)c4ccccc4)C3)c12 [Compound 1008] | 18.9 nM | < 500 nM
9 | O=C(C(=O)N1CCC(Oc2ccccc2)CC1)c1c[nH]c2c(-n3ccnn3)ncc(F)c12 [Compound 1009] |  | < 500 nM
10 | O=C(C(=O)N1CCC(Nc2ccccc2)CC1)c1c[nH]c2c(-n3ccnn3)ncc(F)c12 [Compound 1010] | 41.8 nM | < 500 nM
11 | CCC(=O)N(c1ccccc1)C1CCN(C(=O)C(=O)c2c[nH]c3c(-n4ccnn4)ncc(F)c23)CC1 [Compound 1011] |  | < 500 nM
12 | COc1ccnc2[nH]cc(C(=O)C(=O)N3CCC(Oc4ccccc4)CC3)c12 [Compound 1012] |  | < 500 nM
13 | COc1ncc(OC)c2c(C(=O)C(=O)N3CCC(Oc4ccccc4)CC3)c[nH]c12 [Compound 1013] |  | > 500 nM
14 | COc1ccnc2[nH]cc(C(=O)C(=O)N3CCC(Oc4ccc(Cl)cc4)CC3)c12 [Compound 1014] | 757 nM | > 500 nM
15 | COc1ncc(OC)c2c(C(=O)C(=O)N3CCC(Oc4ccc(Cl)cc4)CC3)c[nH]c12 [Compound 1015] |  | > 500 nM
16 | O=C(C(=O)N1CCCC(Oc2ccccc2)C1)c1c[nH]c2cccc(F)c12 (centres unmarked) [Compound 1016] |  | > 500 nM
17 | NC(=O)C1(Nc2ccccc2)CCN(C(=O)C(=O)c2c[nH]c3ccccc23)CC1 [Compound 1017] |  | > 500 nM
18 | O=C(C(=O)N1CCC(Nc2cccc(S(=O)(=O)C(F)(F)F)c2)CC1)c1c[nH]c2ccccc12 [Compound 1018] |  | > 500 nM
19 | O=C(C(=O)N1CCC(c2cccc(C(F)(F)F)c2)C(O)C1)c1c[nH]c2ccccc12 (centres unmarked) [Compound 1019] |  | > 500 nM
20 | COc1ccc(OC2CN(C(=O)C(=O)c3c[nH]c4c(-n5ccnn5)ncc(F)c34)C2)cc1 [Compound 1020] |  | < 500 nM
21 | COc1cnc(-n2cnc(C)n2)c2[nH]cc(C(=O)C(=O)N3CCc4ncn(-c5ccccc5)c4CC3)c12 [Compound 2001] | 0.09 nM | < 500 nM
22 | COc1cnc(-n2cnc(C)n2)c2[nH]cc(C(=O)C(=O)N3CCc4nn(-c5ccccc5)cc4C3)c12 [Compound 2002] | 0.92 nM | < 500 nM
23 | COc1cnc(-n2cnc(C)n2)c2[nH]cc(C(=O)C(=O)N3Cc4nn(-c5ccccc5)c(N)c4C3)c12 [Compound 2003] |  | < 500 nM
